Measurements: ChEMBL document CHEMBL5465560, “Selectivity Literature for EUbOPEN Chemogenomic Library” (2024)

Assays:
[1] = target: Serine/threonine-protein kinase 33 (Homo sapiens) (UniProt Q9BYT3); assay: Selectivity interaction (LanthaScreen Eu Kinase Binding Assay) EUB0001632a STK33; details: at 10 µM
[2] = target: T1, Tyrosine-protein kinase ZAP-70 (Homo sapiens) (UniProt P43403); assay: Selectivity interaction (ActivX KiNativ screen (ex vivo kinase selectivity in human PBMCs)) EUB0001619a ZAP70; assay type: cell-based; details: PBMC, at 1 µM
T1 sequence (whole entry): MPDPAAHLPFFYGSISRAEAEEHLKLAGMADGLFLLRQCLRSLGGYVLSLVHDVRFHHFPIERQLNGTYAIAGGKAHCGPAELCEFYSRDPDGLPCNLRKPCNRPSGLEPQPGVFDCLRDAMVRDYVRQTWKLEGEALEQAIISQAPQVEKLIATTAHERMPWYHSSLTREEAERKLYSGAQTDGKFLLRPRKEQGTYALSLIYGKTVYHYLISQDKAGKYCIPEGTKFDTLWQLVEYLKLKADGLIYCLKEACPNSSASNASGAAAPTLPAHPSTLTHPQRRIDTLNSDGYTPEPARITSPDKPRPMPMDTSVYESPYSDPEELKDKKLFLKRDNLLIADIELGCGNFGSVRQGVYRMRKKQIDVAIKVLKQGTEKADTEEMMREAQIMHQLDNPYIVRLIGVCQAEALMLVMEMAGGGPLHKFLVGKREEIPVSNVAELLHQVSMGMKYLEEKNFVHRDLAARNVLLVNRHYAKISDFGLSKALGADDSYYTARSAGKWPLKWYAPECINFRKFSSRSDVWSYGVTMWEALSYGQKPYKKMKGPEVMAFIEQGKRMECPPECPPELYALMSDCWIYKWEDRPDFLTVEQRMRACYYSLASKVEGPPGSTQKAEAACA

[3] = target: Ribosomal protein S6 kinase alpha-4 (Homo sapiens) (UniProt O75676); assay: Selectivity interaction (KinomeScan (DiscoverX)) EUB0000607a RPS6KA4; details: at 10 µM
[4] = target: T2, NT-3 growth factor receptor (Homo sapiens, UniProt Q16288); assay: Selectivity interaction (SelectScreen profiling (Invitrogen)) EUB0000607a NTRK3; details: at 2 µM
[5] = target: Ribosomal protein S6 kinase beta-2 (Homo sapiens) (UniProt Q9UBS0); assay: Selectivity interaction (ActivX KiNativ screen (kinase selectivity in THP-1 cell lysates)) EUB0000639a RPS6KB2; assay type: subcellular; details: lysate
[6] = target: T3, Serine/threonine-protein kinase 17B (Homo sapiens) (UniProt O94768); assay: Selectivity interaction (KinomeScan (DiscoverX)) EUB0000092b STK17B; details: at 10 µM
T3 sequence (whole entry): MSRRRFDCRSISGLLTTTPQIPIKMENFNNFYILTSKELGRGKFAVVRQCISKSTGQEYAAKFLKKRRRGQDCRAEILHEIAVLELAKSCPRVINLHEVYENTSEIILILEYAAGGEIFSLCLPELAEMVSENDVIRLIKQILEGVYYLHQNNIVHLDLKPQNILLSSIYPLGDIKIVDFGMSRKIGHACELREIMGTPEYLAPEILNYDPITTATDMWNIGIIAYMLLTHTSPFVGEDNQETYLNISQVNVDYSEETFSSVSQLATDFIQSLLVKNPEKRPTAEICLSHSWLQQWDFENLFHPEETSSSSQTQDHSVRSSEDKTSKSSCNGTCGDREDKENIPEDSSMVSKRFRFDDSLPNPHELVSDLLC

[7] = target: T4, Ephrin type-A receptor 8 (Homo sapiens) (UniProt P29322); assay: Selectivity interaction (Ambit KINOMEscan and KiNATiv profiling in Jurkat cells) EUB0000090b EPHA8; assay type: cell-based; details: at 1 µM
T4 sequence (whole entry): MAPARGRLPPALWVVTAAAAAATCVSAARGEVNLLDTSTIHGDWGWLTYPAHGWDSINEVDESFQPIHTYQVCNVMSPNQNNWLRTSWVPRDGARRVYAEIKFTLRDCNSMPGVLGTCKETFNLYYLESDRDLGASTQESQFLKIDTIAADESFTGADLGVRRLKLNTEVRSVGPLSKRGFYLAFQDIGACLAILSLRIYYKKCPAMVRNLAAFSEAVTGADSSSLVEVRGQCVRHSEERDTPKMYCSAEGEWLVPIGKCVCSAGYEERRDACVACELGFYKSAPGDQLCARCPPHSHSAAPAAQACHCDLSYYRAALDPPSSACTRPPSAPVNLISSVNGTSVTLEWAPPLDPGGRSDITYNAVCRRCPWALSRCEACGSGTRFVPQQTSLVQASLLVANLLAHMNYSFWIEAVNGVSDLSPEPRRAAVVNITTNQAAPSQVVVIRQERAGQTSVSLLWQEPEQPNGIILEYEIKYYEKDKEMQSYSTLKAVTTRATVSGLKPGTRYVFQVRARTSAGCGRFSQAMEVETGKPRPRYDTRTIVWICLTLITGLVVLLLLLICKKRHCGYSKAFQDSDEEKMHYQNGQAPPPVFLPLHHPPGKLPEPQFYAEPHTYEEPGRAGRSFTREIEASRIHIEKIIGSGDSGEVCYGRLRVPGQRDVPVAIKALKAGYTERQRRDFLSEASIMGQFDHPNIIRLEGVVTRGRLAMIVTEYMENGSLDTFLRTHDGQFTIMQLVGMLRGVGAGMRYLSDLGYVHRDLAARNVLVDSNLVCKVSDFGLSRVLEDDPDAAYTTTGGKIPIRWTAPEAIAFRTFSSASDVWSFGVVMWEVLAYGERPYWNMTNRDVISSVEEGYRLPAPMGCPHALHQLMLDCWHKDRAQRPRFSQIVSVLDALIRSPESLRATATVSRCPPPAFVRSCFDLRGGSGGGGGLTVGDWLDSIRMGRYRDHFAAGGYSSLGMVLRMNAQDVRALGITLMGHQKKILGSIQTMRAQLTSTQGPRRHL

[8] = target: Interleukin-1 receptor-associated kinase 1 (Homo sapiens) (UniProt P51617); assay: Selectivity interaction (Ambit KINOMEscan and KiNATiv profiling in Jurkat cells) EUB0000090b IRAK1; assay type: cell-based; details: at 1 µM
[9] = target: T2, NT-3 growth factor receptor; assay: Selectivity interaction (Ambit KINOMEscan and KiNATiv profiling in Jurkat cells) EUB0000090b NTRK3; assay type: cell-based; details: at 1 µM

Chain of Ribosomal protein S6 kinase beta-2 (Homo sapiens) (Q9UBS0 whole entry): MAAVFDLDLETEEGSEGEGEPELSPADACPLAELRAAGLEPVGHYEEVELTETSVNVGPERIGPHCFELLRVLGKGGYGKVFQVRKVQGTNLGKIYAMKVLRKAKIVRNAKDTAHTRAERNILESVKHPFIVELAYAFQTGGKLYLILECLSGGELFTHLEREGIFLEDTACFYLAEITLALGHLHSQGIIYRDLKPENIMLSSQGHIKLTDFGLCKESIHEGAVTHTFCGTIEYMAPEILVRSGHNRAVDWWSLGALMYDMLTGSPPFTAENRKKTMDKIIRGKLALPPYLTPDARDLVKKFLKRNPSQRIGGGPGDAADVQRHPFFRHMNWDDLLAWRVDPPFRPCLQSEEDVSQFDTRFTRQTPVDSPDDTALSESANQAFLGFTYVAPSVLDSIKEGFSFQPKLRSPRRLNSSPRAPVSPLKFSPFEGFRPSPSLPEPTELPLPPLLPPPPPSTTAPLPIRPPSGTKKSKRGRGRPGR
T2 sequence (Q16288 32-839 limits assumed): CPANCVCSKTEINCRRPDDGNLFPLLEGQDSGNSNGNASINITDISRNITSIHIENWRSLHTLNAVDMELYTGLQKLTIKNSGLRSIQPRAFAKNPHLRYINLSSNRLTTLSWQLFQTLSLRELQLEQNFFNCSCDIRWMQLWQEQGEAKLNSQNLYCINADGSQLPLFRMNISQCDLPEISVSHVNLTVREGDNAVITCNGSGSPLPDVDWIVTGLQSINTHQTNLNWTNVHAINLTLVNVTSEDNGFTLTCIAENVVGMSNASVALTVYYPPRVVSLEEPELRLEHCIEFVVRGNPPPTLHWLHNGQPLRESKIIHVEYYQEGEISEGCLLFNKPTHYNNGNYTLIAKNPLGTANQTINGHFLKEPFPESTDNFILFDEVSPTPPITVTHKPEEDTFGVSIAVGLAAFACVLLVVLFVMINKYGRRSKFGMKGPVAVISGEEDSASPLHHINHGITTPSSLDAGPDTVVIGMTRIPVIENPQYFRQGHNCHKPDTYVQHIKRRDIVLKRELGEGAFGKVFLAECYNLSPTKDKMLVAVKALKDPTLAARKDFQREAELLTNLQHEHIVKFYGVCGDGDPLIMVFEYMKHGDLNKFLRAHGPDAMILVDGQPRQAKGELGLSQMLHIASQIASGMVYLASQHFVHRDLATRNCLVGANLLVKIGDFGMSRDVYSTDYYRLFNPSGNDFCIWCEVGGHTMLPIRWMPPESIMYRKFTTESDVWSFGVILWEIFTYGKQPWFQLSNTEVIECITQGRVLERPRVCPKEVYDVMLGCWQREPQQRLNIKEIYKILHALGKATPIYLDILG
Chain of Serine/threonine-protein kinase 33 (Homo sapiens) (Q9BYT3 whole entry, looked up): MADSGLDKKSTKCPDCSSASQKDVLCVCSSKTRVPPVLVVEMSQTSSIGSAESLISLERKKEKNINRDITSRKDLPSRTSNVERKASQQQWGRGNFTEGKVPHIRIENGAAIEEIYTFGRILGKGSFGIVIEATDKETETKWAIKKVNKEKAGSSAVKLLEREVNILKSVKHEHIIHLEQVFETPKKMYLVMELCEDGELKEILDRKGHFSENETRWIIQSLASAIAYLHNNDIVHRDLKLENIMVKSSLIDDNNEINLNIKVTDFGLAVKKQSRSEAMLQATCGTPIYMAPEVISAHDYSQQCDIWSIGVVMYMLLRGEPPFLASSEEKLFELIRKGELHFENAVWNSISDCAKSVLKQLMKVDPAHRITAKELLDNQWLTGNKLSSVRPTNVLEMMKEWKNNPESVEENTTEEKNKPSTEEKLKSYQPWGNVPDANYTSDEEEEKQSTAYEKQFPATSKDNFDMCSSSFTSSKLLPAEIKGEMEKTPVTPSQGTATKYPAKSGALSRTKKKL
Chain of Ribosomal protein S6 kinase alpha-4 (Homo sapiens) (O75676 whole entry, looked up): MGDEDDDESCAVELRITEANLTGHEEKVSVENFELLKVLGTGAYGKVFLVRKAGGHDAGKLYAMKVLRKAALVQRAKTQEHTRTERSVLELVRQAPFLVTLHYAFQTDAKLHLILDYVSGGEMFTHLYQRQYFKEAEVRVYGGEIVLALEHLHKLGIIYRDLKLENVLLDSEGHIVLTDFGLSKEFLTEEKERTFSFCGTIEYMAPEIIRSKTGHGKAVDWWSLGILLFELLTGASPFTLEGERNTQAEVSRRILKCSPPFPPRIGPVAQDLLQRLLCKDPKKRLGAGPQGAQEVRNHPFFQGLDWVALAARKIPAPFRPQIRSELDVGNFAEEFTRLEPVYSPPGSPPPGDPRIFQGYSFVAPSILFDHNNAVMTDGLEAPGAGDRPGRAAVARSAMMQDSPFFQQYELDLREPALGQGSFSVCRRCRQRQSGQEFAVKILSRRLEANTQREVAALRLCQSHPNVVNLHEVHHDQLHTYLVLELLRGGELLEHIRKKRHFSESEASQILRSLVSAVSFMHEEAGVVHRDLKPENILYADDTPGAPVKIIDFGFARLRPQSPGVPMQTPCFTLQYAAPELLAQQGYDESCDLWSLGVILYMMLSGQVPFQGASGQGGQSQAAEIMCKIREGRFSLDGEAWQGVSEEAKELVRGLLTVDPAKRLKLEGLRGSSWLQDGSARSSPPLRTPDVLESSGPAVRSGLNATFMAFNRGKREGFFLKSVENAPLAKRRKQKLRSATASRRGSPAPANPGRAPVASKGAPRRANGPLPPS
Chain of Interleukin-1 receptor-associated kinase 1 (Homo sapiens) (P51617 whole entry, looked up): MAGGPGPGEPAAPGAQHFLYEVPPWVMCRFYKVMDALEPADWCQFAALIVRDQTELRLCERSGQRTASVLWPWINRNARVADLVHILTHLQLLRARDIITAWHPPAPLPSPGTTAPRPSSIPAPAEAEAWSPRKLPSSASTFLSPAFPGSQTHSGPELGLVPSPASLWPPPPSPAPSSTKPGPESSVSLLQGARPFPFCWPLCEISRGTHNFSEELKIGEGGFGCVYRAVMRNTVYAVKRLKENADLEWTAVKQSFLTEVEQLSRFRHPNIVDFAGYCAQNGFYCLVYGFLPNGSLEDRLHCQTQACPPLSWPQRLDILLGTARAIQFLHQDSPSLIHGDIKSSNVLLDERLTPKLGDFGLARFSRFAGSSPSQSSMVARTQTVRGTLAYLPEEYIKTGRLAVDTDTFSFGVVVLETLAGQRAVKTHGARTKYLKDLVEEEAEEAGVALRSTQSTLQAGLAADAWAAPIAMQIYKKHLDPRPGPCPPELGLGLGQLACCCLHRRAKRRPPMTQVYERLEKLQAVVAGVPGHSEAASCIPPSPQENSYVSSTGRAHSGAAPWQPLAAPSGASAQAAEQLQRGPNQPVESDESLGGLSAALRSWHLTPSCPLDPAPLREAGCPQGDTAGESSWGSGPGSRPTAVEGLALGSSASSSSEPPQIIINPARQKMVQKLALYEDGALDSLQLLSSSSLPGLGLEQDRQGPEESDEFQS

In the case of `Cn1cc(-n2cnc3c(NCc4nc5cc(Cl)c(Cl)cc5[nH]4)nc(N4CCOCC4)nc32)cn1`, the % of inhibition [1] is reported as -17.6%.
`N#Cc1cccc(-c2c[nH]c3ncnc(N4CCOCC4)c23)c1` showed a % of inhibition [2] of -3%.
In the case of `CNC(=O)Nc1ccc(-c2nc(N3CC4CCC(C3)O4)c3cnn(C4CCC5(CC4)OCCO5)c3n2)cc1`, the % of control [3] is reported as 100% and the % of inhibition [4] is reported as 5%.
`CC[C@@H]1[C@H](F)C(=O)N[C@@H]1COc1nccc2cc(C(N)=O)c(OC)cc12` [ZIMLOVISERTIB] gave a % of inhibition ([5]; at 0.01 µM) of -0.4%, a % of inhibition ([5]; at 0.04 µM) of 9.9% and a % of inhibition ([5]; at 0.2 µM) of -6.2%. The % of inhibition ([5]; at 1 µM) was -5.5% and the % of inhibition ([5]; at 5 µM) was 3.9%.
Work on `CCC(=O)N1CCN(c2ccc(-n3c(=O)ccc4cnc5ccc(-c6cnc7ccccc7c6)cc5c43)cc2C(F)(F)F)CC1` yielded a % of control [6] of 67%.
With `CN(C)C/C=C/C(=O)Nc1ccc(C(=O)N2CCCC(Nc3ncc(Cl)c(-c4c[nH]c5ccccc45)n3)C2)cc1` (stereo not drawn) the % of control [7] was 89%, the % of control [8] was 97% and the % of control [9] was 81%.
